Biological target: T1, H+/K+ ATPase (Oryctolagus cuniculus, UniProt P27112)
T1 construct: The stomach tissue of the rabbit was separated; from tissue; host or cells: rabbit stomach fundus mucosa, microsomal/Ficoll membrane fraction
Test: Determination of compounds' inhibition of H+/K+ ATPase enzyme activity (malachite green, OD 620 nm)
Assay type: biochemical
Details: enzyme extracted from rabbit stomach mucosa; pH 6.5; 500 μM ATP; 37° C.; read-out: IC50(μM) inhibition rate (IC50) of H+/K+ ATPase enzyme activity
Description: Test Example: Determination of Compounds' Inhibition of H+/K+ ATPase Enzyme Activity
The following experiment is used to determine the inhibitory effect of the compound of the present invention on the H+/K+ ATPase enzyme activity.
• Plate reader: SpectraMax M5(MD) • Malachite Green (Sigma Aldrich, 213020-25G) • Ammonium molybdate (Sigma Aldrich, 277908-20G) • ATP (Sigma Aldrich, A1852-1VL). 2. Buffer Preparation • Enzyme working solution: titrating the enzyme, diluting the enzyme with buffer solution 1, and taking 5 μl of the diluted solution into 50 μl reaction system • ATP solution: 100 mM ATP was diluted to 5 mM with no K+ buffer, and 5 μl of the diluted solution was added to the 50 μl reaction system, that is, the final concentration of ATP was 500 μM MLG color development liquid: 0.12% MLG, 7.5% ammonium molybdate, 11% Tween-20 was mixed as 100:25:2, and adding 15 μl of the mixture into each well during detection. • Buffer 1: 50 mM Tris-HCl pH 6.5, 5 mM magnesium chloride (magnesium chloride), 10 μM valinomycin (valinomycin) • Buffer 2: 50 mM Tris-HCl pH 6.5, 5 mM magnesium chloride (magnesium chloride), 10 μM valinomycin (valinomycin), 20 mM KCl • Homogenization buffer: 10 mmol/L Tris-HCl, pH 6.8, 0.25 M sucrose (sucrose), 1 mmol/LEDTA 7.5% Ficoll layering solution: homogenization buffer+7.5% (W/W) (Ficoll 400). 3. Experimental Steps […] Enzyme Extraction • (1) The stomach tissue of the rabbit was separated, and the blood was washed with tap water, food residue. • (2) The fundus portion was thoroughly washed with pre-cooled NaCl solution to remove surface mucus. • (3) The stripped mucosa was filled into a sample bag or a 50 ml centrifuge tube, and quickly freezing in a liquid nitrogen tank. • (4) The tissue was removed, minced with surgical scissors, and a pre-cooled homogenization buffer (4 ml/g tissue) was added and homogenized in a tissue homogenizer for 2 to 10 minutes. • (5) After homogenization, if there were larger tissue particles, they could be removed by centrifugation (600 g, 10 min), and then the supernatant was transferred to a clean centrifuge tube. After centrifugation at 20000 g for 30 minutes, then the supernatant was transferred to a clean centrifuge tube at 100000 g for 90 minutes, and the precipitate was collected. • (6) Resuspending the precipitate with homogenization buffer, blowing uniformly, adding 7.5% Ficoll layering solution at equal ratio, centrifuging at 100000 g for 90 minutes, and collecting the precipitate. • (7) Resuspending the precipitate with homogenization buffer, blowing uniformly, and the protein concentration was measured by Bradford. Freezing in tubes at −80° C. for later use. 3.2. H+/K+ ATPase Activity Experiment • (1) Adding 35 μl of reaction buffer to each experimental well, and then adding […]. • (2) Adding 5 μl buffer 1 containing 10% DMSO to the whole enzyme and buffer well. • (3) Adding 5 μl of 10× compound working solution to the compound well and mixing well. • (4) Adding 5 μl of buffer 1 to the buffer well. • (5) Adding 5 μl of 10× enzyme working solution to the remaining wells, mixing and incubating at 37° C. for 30 minutes. • (6) Adding 5 μl of 10×ATP working solution to all experimental wells, mixing and incubating at 37° C. for 20 min. • (7) Adding 15 μl MLG chromogenic solution to all experimental wells, and uniformly mixing and incubating at room temperature for 5-30 min. • (8) The reading number of 620 nm was detected by an M5 instrument. 4. Data Analysis
The inhibition rate is calculated with the following formula: Inhibition rate (IC50)=[OD (sample well)−OD (full enzyme well containing potassium chloride)]/[(OD (full enzyme well containing potassium chloride)−(OD (full enzyme well without potassium chloride)]×100% 5. Experimental Results

T1 sequence (P27112 whole entry): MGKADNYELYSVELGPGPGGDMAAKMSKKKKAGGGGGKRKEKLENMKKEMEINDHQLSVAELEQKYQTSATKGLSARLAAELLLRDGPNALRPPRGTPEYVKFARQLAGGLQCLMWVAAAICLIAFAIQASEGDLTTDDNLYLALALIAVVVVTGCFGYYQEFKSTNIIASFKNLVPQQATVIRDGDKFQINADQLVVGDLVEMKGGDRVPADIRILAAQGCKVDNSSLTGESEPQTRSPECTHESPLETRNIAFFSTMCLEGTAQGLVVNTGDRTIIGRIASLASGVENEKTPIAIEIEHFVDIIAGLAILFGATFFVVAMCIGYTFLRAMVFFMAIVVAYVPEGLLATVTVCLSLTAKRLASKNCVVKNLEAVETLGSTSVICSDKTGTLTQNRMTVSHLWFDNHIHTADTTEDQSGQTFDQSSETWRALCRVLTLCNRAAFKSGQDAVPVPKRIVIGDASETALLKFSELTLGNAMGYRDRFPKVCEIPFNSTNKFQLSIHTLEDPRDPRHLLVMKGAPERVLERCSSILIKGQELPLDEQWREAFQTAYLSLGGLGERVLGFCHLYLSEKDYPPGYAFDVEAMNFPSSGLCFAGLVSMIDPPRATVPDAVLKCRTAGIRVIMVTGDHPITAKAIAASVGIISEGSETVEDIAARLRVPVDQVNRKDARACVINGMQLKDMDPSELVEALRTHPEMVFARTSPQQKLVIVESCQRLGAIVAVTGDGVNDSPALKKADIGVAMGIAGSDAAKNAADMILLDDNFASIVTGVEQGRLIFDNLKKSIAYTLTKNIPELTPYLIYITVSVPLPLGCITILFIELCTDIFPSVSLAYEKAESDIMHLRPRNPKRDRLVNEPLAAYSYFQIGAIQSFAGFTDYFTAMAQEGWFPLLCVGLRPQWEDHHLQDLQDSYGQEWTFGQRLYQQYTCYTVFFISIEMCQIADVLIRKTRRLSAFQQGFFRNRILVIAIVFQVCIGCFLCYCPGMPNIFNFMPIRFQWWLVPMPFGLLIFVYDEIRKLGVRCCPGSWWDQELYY
T1 sequence (P18597 whole entry partner): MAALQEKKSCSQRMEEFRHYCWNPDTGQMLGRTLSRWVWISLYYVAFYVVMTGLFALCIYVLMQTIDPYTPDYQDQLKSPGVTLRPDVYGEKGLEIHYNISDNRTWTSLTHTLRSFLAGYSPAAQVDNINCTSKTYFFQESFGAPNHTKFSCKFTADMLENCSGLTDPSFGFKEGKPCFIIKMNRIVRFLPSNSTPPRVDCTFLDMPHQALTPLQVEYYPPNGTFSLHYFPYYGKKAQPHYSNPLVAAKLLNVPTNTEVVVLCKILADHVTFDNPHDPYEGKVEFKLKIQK

SMILES | IC50 [µM]
CN1Cc2nn(Cc3ccc(O)c(C4=CCOCC4)c3)c(-c3ccccc3F)c2C1 [Example 1, 2-(3,6-dihydro-2H-pyran-4-yl)-4-((3-(2-fluorophenyl)-5-methyl-5,6-dihydropyrrolo[3,4-c]pyrazole-2(4H)-yl)methyl)phenol] | 0.233
CN1Cc2nn(Cc3cc(Cl)cc(C4=CCOCC4)c3)c(-c3ccccc3F)c2C1 [Example 6, 2-(3-chloro-5-(3,6-dihydro-2H-pyran-4-yl)benzyl)-3-(2-fluorophenyl)-5-methyl-2,4,5,6-tetrahydropyrrolo[3,4-c]pyrazole] | 0.121
CN1Cc2nn(Cc3ccc(O)c(C4=CCCOC4)c3)c(-c3ccccc3F)c2C1 [Example 2, 2-(5,6-dihydro-2H-pyran-3-yl)-4-((3-(2-fluorophenyl)-5-methyl-5,6-dihydropyrrolo[3,4-c]pyrazole-2(4H)-yl)methyl)phenol] | 0.0559
CN1Cc2nn(Cc3cccc(C4=CCOCC4)c3)c(-c3cccnc3F)c2C1 [Example 10, 2-(3-(3,6-dihydro-2H-pyran-4-yl)benzyl)-3-(2-fluoropyridin-3-yl)-5-methyl-2,4,5,6-tetrahydropyrrolo[3,4-c]pyrazole] | 0.769
CN1Cc2nn(Cc3cc(O)cc(C4=CCCOC4)c3)c(-c3ccccc3F)c2C1 [Example 4, 3-(5,6-dihydro-2H-pyran-3-yl)-5-((3-(2-fluorophenyl)-5-methyl-5,6-dihydropyrrolo[3,4-c]pyrazole-2(4H)-yl)methyl)phenol] | 0.113
CN1Cc2nn(Cc3ccc(F)c(C4=CCOCC4)c3)c(-c3ccccc3F)c2C1 [Example 7, 2-(3-(3,6-dihydro-2H-pyran-4-yl)-4-fluorobenzyl)-3-(2-fluorophenyl)-5-methyl-2,4,5,6-tetrahydropyrrolo[3,4-c]pyrazole] | 0.114
CN1Cc2nn(Cc3cc(O)cc(C4=CCOCC4)c3)c(-c3ccccc3F)c2C1 [Example 8, 3-(3,6-dihydro-2H-pyran-4-yl)-5-((3-(2-fluorophenyl)-5-methyl-5,6-dihydropyrrolo[3,4-c]pyrazole-2(4H)-yl)methyl)phenol] | 0.0811
CN1Cc2nn(Cc3cccc(C4=CCOCC4)c3)c(-c3ccccc3F)c2C1 [Example 5, 2-(3-(3,6-dihydro-2H-pyran-4-yl)benzyl)-3-(2-fluorophenyl)-5-methyl-2,4,5,6-Tetrahy dropyrrolo[3,4-C]pyrazole] | 0.0883
CN1Cc2nn(Cc3cccc(C4=CCCOC4)c3)c(-c3ccccc3F)c2C1 [Example 3, 2-(3-(5,6-dihydro-2H-pyran-3-yl)benzyl)-3-(2-fluorophenyl)-5-methyl-2,4,5,6-tetrahydropyrrolo[3,4-C]pyrazole] | 0.197
CN1Cc2nn(Cc3cccc(C4=CCNCC4)c3)c(-c3ccccc3F)c2C1 [Example 9, 3-(2-fluorophenyl)-5-methyl-2-(3-(1,2,3,6-tetrahydropyridin-4-yl)benzyl)-2,4,5,6-tetrahydropyrrolo[3,4-C]pyrazole] | 0.208

— US12404276B2, “Substituted pyrrolo[3,4-c]pyrazoles for treating gastric acid-related diseases” (SHANGHAI MEDICILON INC., priority 2019, dated 2025)
